Test results from patent US9963448B2, “Bicyclic inhibitors of PAD4” (Padlock Therapeutics, Inc., priority 2015, dated 2018).
Read-outs that look alike come from different tables or passages of the source.

How the values were obtained:
hPAD4 = hPAD4 (Homo sapiens, UniProt Q9UM07); assay: hPAD4 RFMS (RapidFire mass spectrometry) PAD4 inhibition assay; type: biochemical; conditions: hPAD4 enzyme, RFMS readout;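 as to hPAD4 RFMS pIC50: grade E means pIC50 at most 4 and F means pIC50 4.0 to 5.0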
Protocol: (§1) Compounds of the present invention were assayed as inhibitors of PAD4 using the assay protocol described below.
(§2) Compound stock solutions were stored at RT. […] Final assay conditions were as follows:
(§3) Total incubation time: 65 mins at 37° C.
(§4) Stop solution: 40 μl 5% TCA in ACN
(§5) The compound numbers correspond to the compound numbers in Table 1. […] The term pIC50=−log(IC50). […] “NA” stands for “not assayed.”

mPAD4 = mPAD4 (Mus musculus, UniProt Q9Z183); assay: mPAD4 RFMS PAD4 inhibition assay; type: biochemical; conditions: mPAD4, RFMS readout;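 as to mPAD4 RFMS pIC50: grade E means pIC50 at most 4 and F means pIC50 4.0 to 5.0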
mPAD4, sequence (Q9Z183 whole entry): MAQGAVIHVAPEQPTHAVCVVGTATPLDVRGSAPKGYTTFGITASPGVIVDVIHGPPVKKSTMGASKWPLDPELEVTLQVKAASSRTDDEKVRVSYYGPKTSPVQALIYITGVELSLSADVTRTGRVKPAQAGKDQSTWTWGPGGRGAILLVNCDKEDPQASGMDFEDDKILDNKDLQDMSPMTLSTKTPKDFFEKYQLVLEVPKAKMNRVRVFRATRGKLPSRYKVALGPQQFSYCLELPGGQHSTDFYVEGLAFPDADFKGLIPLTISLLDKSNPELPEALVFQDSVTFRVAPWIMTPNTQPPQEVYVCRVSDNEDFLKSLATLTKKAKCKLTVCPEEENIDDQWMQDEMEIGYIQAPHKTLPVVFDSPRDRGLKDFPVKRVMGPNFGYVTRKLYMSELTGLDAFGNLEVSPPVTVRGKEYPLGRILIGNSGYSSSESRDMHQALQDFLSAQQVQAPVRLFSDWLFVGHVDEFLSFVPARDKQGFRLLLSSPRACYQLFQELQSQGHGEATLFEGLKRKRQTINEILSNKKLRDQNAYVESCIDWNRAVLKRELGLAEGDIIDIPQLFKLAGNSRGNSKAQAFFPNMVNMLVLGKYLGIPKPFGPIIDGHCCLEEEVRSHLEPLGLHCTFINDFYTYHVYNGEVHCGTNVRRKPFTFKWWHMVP
Protocol: as §1, §2, §3, §4, §5

[1] = pIC50=−log(IC50), read-out: hPAD4 RFMS pIC50 (converted)
[2] = pIC50=−log(IC50), read-out: mPAD4 RFMS pIC50 (converted)

hPAD4, sequence (Q9UM07 whole entry): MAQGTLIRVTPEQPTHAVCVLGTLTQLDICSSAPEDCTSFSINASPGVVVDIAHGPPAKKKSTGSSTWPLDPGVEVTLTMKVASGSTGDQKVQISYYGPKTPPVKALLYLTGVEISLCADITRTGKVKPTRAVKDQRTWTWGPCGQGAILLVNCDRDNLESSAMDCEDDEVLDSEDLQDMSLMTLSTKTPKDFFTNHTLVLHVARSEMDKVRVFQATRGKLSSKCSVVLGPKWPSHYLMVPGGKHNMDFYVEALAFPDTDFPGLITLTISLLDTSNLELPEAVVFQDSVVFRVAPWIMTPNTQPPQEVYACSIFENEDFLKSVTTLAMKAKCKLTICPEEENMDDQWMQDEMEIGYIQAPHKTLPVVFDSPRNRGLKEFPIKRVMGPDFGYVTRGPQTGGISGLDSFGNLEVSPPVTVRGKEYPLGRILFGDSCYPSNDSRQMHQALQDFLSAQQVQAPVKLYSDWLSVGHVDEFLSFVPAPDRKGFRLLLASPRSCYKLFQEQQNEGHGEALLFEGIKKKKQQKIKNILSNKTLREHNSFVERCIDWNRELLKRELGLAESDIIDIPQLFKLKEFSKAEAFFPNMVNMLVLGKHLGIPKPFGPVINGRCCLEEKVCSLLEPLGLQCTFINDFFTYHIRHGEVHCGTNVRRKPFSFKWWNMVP

Row | SMILES | IC50 (hPAD4; [1]) [nM] | IC50 (hPAD4; read-out: hPAD4 RFMS IC50) [nM] | IC50 (mPAD4; [2]) [nM] | IC50 (mPAD4; read-out: mPAD4 RFMS IC50) [nM]
1 | CCn1c(-c2nc3cc(C(=O)N4CCC[C@@H](N)C4)cc(OC)c3n2C)cc2ccc(C(F)(F)F)nc21 [Compound I-184] | < 1000 | < 1000 | < 1000 | < 1000
2 | CCn1c(-c2nc3cc(C(=O)N4CCC[C@@H](N)C4)ccc3n2CCOC)cc2cccnc21 [Compound I-185] | 1000 to 10000 | 5000 to 10000 | 10000 to 100000 | > 10000
3 | CCn1c(-c2nc3cc(C(=O)N4C[C@H]5CC[C@@H]4[C@@H]5N)ccc3n2CCOC)cc2cccnc21 [Compound I-186] | 1000 to 10000 | 1000 to 5000 | 10000 to 100000 | > 10000
4 | COc1cc(C(=O)N2C[C@H]3CC4OC(=O)N[C@H]3[C@@H]42)cc2nc(-c3cc4cccnc4n3CC3CC3)n(C)c12 [Compound I-187, (1S,2R,8R)-10-{2-[1-(Cyclopropylmethyl)-1H-pyrrolo[2,3-b]pyridin-2-yl]-7-methoxy-1-methyl-1H-1,3-benzodiazole-5-carbonyl}-5-oxa-3,10-diazatricyclo[4.4.0.0^2,8]decan-4-one] | 10000 to 100000 | > 10000 | 10000 to 100000 | > 10000
5 | COc1ccc2cc(-c3nc4cc(C(=O)N5C[C@H]6CC[C@@H]5[C@@H]6N)cc(OC)c4n3C)n(CC3CC3)c2n1 [Compound I-188] | < 1000 | < 1000 | < 1000 | < 1000
6 | CCn1c(-c2nc3cc(C(=O)N4C[C@H]5CC[C@@H]4[C@@H]5N)cc(OC)c3n2C)cc2ccc(C(F)F)nc21 [Compound I-189, (1R,4R,7R)-2-{2-[6-(Difluoromethyl)-1-ethyl-1H-pyrrolo[2,3-b]pyridin-2-yl]-7-methoxy-1-methyl-1H-1,3-benzodiazole-5-carbonyl}-2-azabicyclo[2.2.1]heptan-7-amine] | < 1000 | < 1000 | < 1000 | < 1000
7 | COCCn1c(-c2nc3cc(C(=O)N4C[C@@H](N)CC[C@H]4C)cc(OC)c3n2C)cc2cccnc21 [Compound I-190] | 1000 to 10000 | 1000 to 5000 | 1000 to 10000 | 1000 to 5000
8 | Cn1c(-c2cc3cccnc3n2CC2CC2)nc2cc(C(=O)N3C[C@H]4CC[C@@H]3[C@@H]4N)cc(F)c21 [Compound I-191] | < 1000 | < 1000 | 1000 to 10000 | 1000 to 5000
9 | COCCn1c(-c2nc3cc(C(=O)N4C[C@H]5CC[C@@H]4[C@@H]5N)ccc3n2C)cc2ccc(OC)nc21 [Compound I-192] | < 1000 | < 1000 | 1000 to 10000 | 5000 to 10000
10 | COCCn1c(-c2nc3cc(C(=O)N4CCC[C@@H](N)C4)ccc3n2C)cc2ccc(OC)nc21 [Compound I-193] | 1000 to 10000 | 1000 to 5000 | 1000 to 10000 | 1000 to 5000
11 | Cn1c(-c2cc3cccnc3n2CC2CC2)nc2cc(C(=O)N3C[C@H]4CC[C@@H]3[C@@H]4N)c(F)cc21 [Compound I-194] | 1000 to 10000 | 1000 to 5000 | 1000 to 10000 | 5000 to 10000
12 | COCCn1c(-c2nc3cc(C(=O)N4C[C@H](N)CC[C@@H]4C)cc(OC)c3n2C)cc2cccnc21 [Compound I-195] | 1000 to 10000 | 5000 to 10000 | 1000 to 10000 | 1000 to 5000
13 | COc1cc(C(=O)N2C[C@H]3CC[C@@H]2[C@@H]3N)cc2nc(-c3cc4ccc(C(F)(F)F)nc4n3CC3CC3)n(C)c12 [Compound I-196] | < 1000 | < 1000 | < 1000 | < 1000
14 | COc1cc(C(=O)N2CCC[C@@H](N)C2)cc2nc(-c3cc4ccc(C(F)(F)F)nc4n3CC3CC3)n(C)c12 [Compound I-197] | < 1000 | < 1000 | < 1000 | < 1000
15 | COc1cc(C(=O)N2C[C@H]3CC[C@@H]2[C@@H]3N)cc2nc(-c3cc4ccc(C)nc4n3CC3CC3)n(C)c12 [Compound I-198] | < 1000 | < 1000 | < 1000 | < 1000
16 | COc1cc(C(=O)N2CCC[C@@H](N)C2)cc2nc(-c3cc4ccc(C)nc4n3CC3CC3)n(C)c12 [Compound I-199] | < 1000 | < 1000 | < 1000 | < 1000
17 | CCn1c(-c2nc3cc(C(=O)N4C[C@H]5CC[C@@H]4[C@@H]5N)cc(OC)c3n2C)cc2ccc(OC(F)F)nc21 [Compound I-200, (1R,4R,7R)-2-{2-[6-(difluoromethoxy)-1-ethyl-1H-pyrrolo[2,3-b]pyridin-2-yl]-7-methoxy-1-methyl-1H-1,3-benzodiazole-5-carbonyl}-2-azabicyclo[2.2.1]heptan-7-amine] | < 1000 | < 1000 | < 1000 | < 1000
18 | CCn1c(-c2nc3cc(C(=O)N4CCC[C@@H](N)C4)cc(OC)c3n2C)cc2ccc(OC(F)F)nc21 [Compound I-201] | < 1000 | < 1000 | < 1000 | < 1000
19 | COc1cc(C(=O)N2C[C@H]3CC[C@@H]2[C@@H]3N)cc2nc(-c3cc4cnc(C)nc4n3CC3CC3)n(C)c12 [Compound I-202, (1R,4R,7R)-2-{2-[7-(Cyclopropylmethyl)-2-methyl-7H-pyrrolo[2,3-d]pyrimidin-6-yl]-7-methoxy-1-methyl-1H-1,3-benzodiazole-5-carbonyl}-2-azabicyclo[2.2.1]heptan-7-amine] | < 1000 | < 1000 | 1000 to 10000 | 1000 to 5000
20 | COc1cc(C(=O)N2CCC[C@@H](N)C2)cc2nc(-c3cc4cnc(C)nc4n3CC3CC3)n(C)c12 [Compound I-203] | < 1000 | < 1000 | 1000 to 10000 | 1000 to 5000
21 | CCn1c(-c2nc3cc(C(=O)N4CCC[C@@H](N)C4)cc(OC)c3n2C[C@H]2C[C@@](C)(OC)C2)cc2ccc(OC)nc21 [Compound I-204] | < 1000 | < 1000 | < 1000 | < 1000
22 | CCn1c(-c2nc3cc(C(=O)N4C[C@H](N)C[C@@H](F)C4)cc(OC)c3n2C[C@H]2C[C@@](C)(OC)C2)cc2ccc(OC)nc21 [Compound I-205] | < 1000 | < 1000 | < 1000 | < 1000
23 | CCn1c(-c2nc3cc(C(=O)N4C[C@H]5CC[C@@H]4[C@@H]5N)cc(OC)c3n2C[C@H]2C[C@@](C)(OC)C2)cc2ccc(OC)nc21 [Compound I-206] | < 1000 | < 1000 | < 1000 | < 1000
24 | CCn1c(-c2nc3cc(C(=O)N4C[C@H]5CC[C@@H]4[C@@H]5N)cc(OC)c3n2[C@H]2C[C@H](OC)C2)cc2cccnc21 [Compound I-207] | 1000 to 10000 | 5000 to 10000 | 1000 to 10000 | 1000 to 5000
25 | COc1cc(C(=O)N2C[C@H](N)C[C@@H](F)C2)cc2nc(-c3cc4ccc(C(F)(F)F)nc4n3CC3CC3)n(C)c12 [Compound I-208] | < 1000 | < 1000 | < 1000 | < 1000
26 | COc1cc(C(=O)N2C[C@H](N)C[C@@H](F)C2)cc2nc(-c3cc4cccnc4n3CC3CC3)n(C[C@H]3C[C@@](C)(OC)C3)c12 [Compound I-209] | < 1000 | < 1000 | < 1000 | < 1000
